According to ChEMBL document CHEMBL1123366, “Antiinflammatory and aldose reductase inhibitory activity of some tricyclic arylacetic acids” (J Med Chem, 1986):

How the values were obtained:
[1] = species on record: Mus musculus; assay: Analgesic activity in mice by mouse phenylquinone writhing assay relative to aspirin.; assay type: functional
[2] = species on record: Rattus norvegicus; assay: Inhibition of carrageenan-induced inflammation of rat paw relative to phenylbutazone.; assay type: functional

## O=C(O)Cc1cc(O)c2c(c1)CCc1ccccc1C2=O
[1]
  Activity: 4
[2]
  Activity: ~20

## CC(C(=O)O)c1ccc2c(=O)c3ccccc3ccc2c1 (centres undefined)
[1]
  Activity: 20
[2]
  Activity: 68

## O=C(O)Cc1ccc2c(c1O)CCc1ccccc1C2=O
[1]
  Activity: ~8
[2]
  Activity: 15

## O=C(O)Cc1ccc2c(c1)CCc1cccc(O)c1C2=O
[1]
  Activity: >=0.4
[2]
  Activity: <0.2

## O=C(O)Cc1ccc2c(c1)OCc1ccccc1C2=O [OXEPINAC]
[1]
  Activity: 4
[2]
  Activity: ~15

## O=C(O)Cc1ccc2c(=O)c3ccccc3ccc2c1
[1]
  Activity: 2
[2]
  Activity: 6

## O=C(O)Cc1ccc2c(c1)CCc1ccccc1C2=O
[1]
  Activity: 1.5
[2]
  Activity: 7

## O=C(O)Cc1ccc2c(c1)CCc1cc(O)ccc1C2=O
[1]
  Activity: ~0.6
[2]
  Activity: ~0.4

## CC(C(=O)O)c1cc(O)c2c(=O)c3ccccc3ccc2c1 (centres undefined)
[1]
  Activity: ~6
[2]
  Activity: ~30

## O=C(O)Cc1ccc2c(c1)SCc1ccccc1C2=O [TIOPINAC]
[1]
  Activity: 14
[2]
  Activity: 40

## O=C1Cc2ccc3c(c2O1)CCc1ccccc1C3=O
[1]
  Activity: ~1
[2]
  Activity: 3

## O=C(O)c1ccccc1Nc1cccc(C(F)(F)F)c1 [FLUFENAMIC ACID]
[1]
  Activity: <0.4
[2]
  Activity: ~6

## CC(C(=O)O)c1cc(O)c2c(c1)CCc1ccccc1C2=O (centres undefined)
[1]
  Activity: 4
[2]
  Activity: ~60

## O=C(O)Cc1cc(O)c2c(=O)c3ccccc3ccc2c1
[1]
  Activity: ~1
[2]
  Activity: 5

## COc1ccc2c(c1)c(CC(=O)O)c(C)n2C(=O)c1ccc(Cl)cc1 [INDOMETHACIN]
[1]
  Activity: 60
[2]
  Activity: 16

## O=C(O)Cc1ccc2c(c1)CCc1ccc(O)cc1C2=O
[1]
  Activity: ~0.2
[2]
  Activity: <0.2

## CC(C(=O)O)c1cccc(C(=O)c2ccccc2)c1 (centres undefined) [KETOPROFEN]
[1]
  Activity: 60
[2]
  Activity: 9
